Data reported in ChEMBL document CHEMBL5244222, “A comprehensive review on xanthone derivatives as α-glucosidase inhibitors” (Eur J Med Chem, 2018).
Converted amounts (≈) assume the structure as drawn.

Legend:
Alpha-glucosidase [1] = target: T1, Alpha-glucosidase (Saccharomyces cerevisiae S288c, UniProt P53341+P38158+P07265); assay: Inhibition of Saccharomyces cerevisiae alpha-glucosidase assessed as release of p-nitrophenol using pNPG as substrate preincubated for 15 mins followed by substrate addition and measured after 30 mins by spectrophotometric analysis; type: protein assay
Prunus dulcis = assay: Inhibition of almond beta-glucosidase using p-NP-beta-G as substrate at 100 uM by spectroscopic analysis
[2] = target: Alpha-glucosidase (Saccharomyces cerevisiae S288c) (UniProt P53341+P38158+P07265); assay: Inhibition of Saccharomyces cerevisiae alpha-glucosidase using p-NP-alpha-G as substrate at 100 uM by spectroscopic analysis; type: protein assay
Alpha-glucosidase [3] = target: T1, Alpha-glucosidase; assay: Inhibition of Saccharomyces cerevisiae alpha-glucosidase assessed as release of p-nitrophenol using pNPG as substrate preincubated for 15 mins followed by substrate addition and measured after 15 mins by plate reader analysis; type: protein assay
Alpha-glucosidase [4] = target: T1, Alpha-glucosidase; assay: Inhibition of Saccharomyces cerevisiae alpha-glucosidase using PNPG as substrate preincubated for 15 mins followed by substrate addition and measured after 30 mins by spectrophotometric assay; type: protein assay
Alpha-glucosidase [5] = target: T1, Alpha-glucosidase; assay: Inhibition of yeast alpha-glucosidase using p-nitrophenyl-alpha-D-glucopyranoside as substrate incubated for 30 mins by spectrophotometric assay; type: protein assay
Alpha-glucosidase [6] = target: T1, Alpha-glucosidase; assay: Inhibition of yeast alpha-glucosidase assessed as release of p-nitrophenol using PNPG as substrate preincubated for 10 mins followed by substrate addition and measured after 35 mins by microplate photometer analysis; type: protein assay
Rattus norvegicus [7] = species on record: Rattus norvegicus; assay: Inhibition of rat intestine alpha-glucosidase using MUG as substrate at 100 uM preincubated for 15 mins followed by substrate addition and measured after 30 mins by fluorescence microplate reader analysis; type: tissue-based; conditions: time 45.0 min
Alpha glucosidase [8] = target: T2, Alpha glucosidase (Homo sapiens, UniProt O43451+P10253+P14410+Q2M2H8); assay: Inhibition of alpha-glucosidase (unknown origin) using PNPG as substrate preincubated for 15 mins followed by substrate addition by microplate reader assay; type: protein assay
Alpha glucosidase [9] = target: T2, Alpha glucosidase; assay: Inhibition of alpha-glucosidase (unknown origin) at 40 uM; type: protein assay
Alpha-glucosidase [10] = target: T1, Alpha-glucosidase; assay: Inhibition of Saccharomyces cerevisiae alpha-glucosidase using maltose as substrate incubated for 30 mins by spectrophotometric assay; type: protein assay
Alpha-glucosidase [11] = target: T1, Alpha-glucosidase; assay: Mixed-type inhibition of Saccharomyces cerevisiae alpha-glucosidase using PNPG as substrate incubated for 30 mins by Lineweaver-Burk double-reciprocal plot analysis; type: protein assay
Alpha-glucosidase [12] = target: T1, Alpha-glucosidase; assay: Inhibition of Saccharomyces cerevisiae alpha-glucosidase using PNPG as substrate incubated for 30 mins by spectrophotometric assay; type: protein assay
Alpha-glucosidase [13] = target: T1, Alpha-glucosidase; assay: Inhibition of baker's yeast alpha-glucosidase using PNP as substrate preincubated for 30 mins followed by […] addition and measured after 1 mins by UV spectrophotometric analysis; type: protein assay
[14] = Inhibition of rat intestine alpha-glucosidase using p-nitrophenyl-alpha-D-glucopyranoside as substrate preincubated for 10 mins followed by substrate addition and measured after 5 mins by spectroscopic analysis; type: tissue-based
[15] = Inhibition of rice alpha-glucosidase using p-nitrophenyl-alpha-D-glucopyranoside as substrate preincubated for 15 mins followed by substrate addition and measured after 90 mins by spectroscopic analysis
Rattus norvegicus [16] = species on record: Rattus norvegicus; assay: Inhibition of rat intestine alpha-glucosidase using MUG as substrate at 65 uM preincubated for 15 mins followed by substrate addition and measured after 30 mins by fluorescence microplate reader analysis; type: tissue-based; conditions: time 45.0 min
Alpha-glucosidase [17] = target: T1, Alpha-glucosidase; assay: Inhibition of Saccharomyces cerevisiae alpha-glucosidase assessed as release of p-nitrophenol using pNPG as substrate preincubated for 15 mins followed by substrate addition and measured after 15 mins by spectrophotometric analysis; type: protein assay
Alpha glucosidase [18] = target: T2, Alpha glucosidase; assay: Inhibition of alpha-glucosidase (unknown origin) at 100 uM; type: protein assay
Alpha glucosidase [19] = target: T2, Alpha glucosidase; assay: Inhibition of alpha-glucosidase (unknown origin) using PNPG as substrate incubated for 30 mins by absorbance assay; type: protein assay
Alpha-glucosidase [20] = target: T1, Alpha-glucosidase; assay: Inhibition of Saccharomyces cerevisiae alpha-glucosidase assessed as release of p-nitrophenol using pNPG as substrate preincubated for 5 mins followed by substrate addition and measured after 30 mins by absorbance assay; type: protein assay
Alpha-glucosidase [21] = target: T1, Alpha-glucosidase; assay: Inhibition of Saccharomyces cerevisiae alpha-glucosidase using pNPG as preincubated for 15 mins followed by substrate addition and measured after 30 mins by spectroscopic analysis
Alpha-glucosidase [22] = target: T1, Alpha-glucosidase; assay: Inhibition of Saccharomyces cerevisiae alpha-glucosidase using pNPG as preincubated for 10 mins followed by substrate addition and measured after 30 mins by spectroscopic analysis; type: protein assay
[23] = Inhibition of rat jejunum isomaltase; type: tissue-based
Rattus norvegicus [24] = species on record: Rattus norvegicus; assay: Inhibition of rat jejunum maltase at 300 ug/ml; type: tissue-based; conditions: dose 300.0 µg/ml
[25] = Inhibition of rat jejunum sucrase; type: tissue-based

COC(=O)c1cc(O)cc2oc3cc(C)cc(O)c3c(=O)c12
IC50 (Alpha-glucosidase [1]): 2980 µM

OC[C@H]1NC[C@H](O)[C@@H](O)[C@@H]1O
inhibition (Prunus dulcis): 81.2% | inhibition [2]: 79.6%

O=c1c2cc(O)ccc2oc2cccc(O)c12
IC50 (Alpha-glucosidase [3]): 35.8 µg/mL (≈ 157 µM) | IC50 (Alpha-glucosidase [4]): 145 µM

C=C(C)/C=C/c1c(O)cc2oc3cc(O)c(OC)c(C/C=C(\C)CC=C(C)C)c3c(=O)c2c1O
IC50 (Alpha-glucosidase [5]): 20.7 µM | IC50 (Alpha-glucosidase [6]): 10.7 µM

O=c1c2cc(O)c(O)cc2oc2c([C@H]3O[C@@H](CO)[C@H](O)[C@@H](O)[C@@H]3O)c(O)cc(O)c12
inhibition (Rattus norvegicus [7]): 50% | IC50 (Alpha glucosidase [8]): 76.98 µg/mL (≈ 182 µM)

COc1cc(O[C@H]2O[C@@H](CO)[C@H](O)[C@H](O)[C@@H]2O)c2c(=O)c3ccc(OC)c(OC)c3oc2c1
inhibition (Alpha glucosidase [9]): 98.8%

COc1c(CC=C(C)C)c(O)c2c(=O)c3c(O)ccc(O)c3oc2c1CC=C(C)C
IC50 (Alpha-glucosidase [4]): 76 µM

C=C(C)/C=C/c1c(O)cc2oc3cc(O)c(OC)c(CC(=O)C(=C)C)c3c(=O)c2c1O
IC50 (Alpha-glucosidase [10]): 85.7 µM | Ki (Alpha-glucosidase [11]): 8.1 µM | IC50 (Alpha-glucosidase [12]): 9.8 µM

C=C(C)C1Cc2c(cc3oc4cc(O)c(OC)c(CC=C(C)C)c4c(=O)c3c2O)O1 (stereo not given) [MANGOSTENONE F]
IC50 (Alpha-glucosidase [10]): 191.2 µM | Ki (Alpha-glucosidase [11]): 18.1 µM | IC50 (Alpha-glucosidase [12]): 21 µM

O=c1c2cc(O)ccc2oc2cc(O)cc(O)c12
IC50 (Alpha-glucosidase [3]): 3.2 µg/mL (≈ 13.1 µM) | IC50 (Alpha-glucosidase [13]): 14.7 µM

C[C@H]1O[C@H](O[C@H]2[C@H](O)[C@@H](O)[C@@H](O[C@H]3[C@H](O)[C@@H](O)C(O)O[C@@H]3CO)O[C@@H]2CO)[C@H](O)[C@@H](O)[C@@H]1N[C@H]1C=C(CO)[C@@H](O)[C@H](O)[C@H]1O (stereo not given in full) [ACARBOSE]
IC50 [14]: 1820 µM | inhibition (Alpha glucosidase [9]): 5.4% | IC50 [15]: 2.39 µg/mL (≈ 3.7 µM) | inhibition (Rattus norvegicus [16]): 50%

COC(=O)c1c(O)c(O)cc2oc3c(Cl)c(C)c(Cl)c(O)c3c(=O)c12
IC50 (Alpha-glucosidase [17]): 40 µM

CC(C)=CCOc1cc(O)c2c(=O)c3ccccc3oc2c1
inhibition (Alpha glucosidase [18]): 31%

CC(C)=CC/C(C)=C/Cc1c(O)c(CC=C(C)C)c2oc3c(O)ccc(O)c3c(=O)c2c1O
IC50 (Alpha-glucosidase [4]): 227 µM

O=c1c2c(O)cc(O)cc2oc2cc(O)cc(O)c12
IC50 (Alpha glucosidase [19]): 39 µM

C=C(C)/C=C/c1c(O)cc2oc3cc(O)c(OC)c(/C=C/C(=C)C)c3c(=O)c2c1O
IC50 (Alpha-glucosidase [5]): 11.4 µM | IC50 (Alpha-glucosidase [10]): 53.3 µM | Ki (Alpha-glucosidase [11]): 7.3 µM | IC50 (Alpha-glucosidase [12]): 5 µM

COc1cc(OC/C=C(\C)C/C=C(\C)C/C=C(\C)C/C=C(\C)C/C=C(\C)C/C=C(\C)C/C=C(\C)C/C=C(\C)CC=C(C)C)c2c(=O)c3c(O)ccc(OC)c3oc2c1
inhibition (Alpha glucosidase [18]): 34.5%

CC(C)=CCc1c(O)cc2oc3ccc(O)cc3c(=O)c2c1O
IC50 (Alpha-glucosidase [20]): > 100 µM

C=C(C)/C=C/c1c(O)cc2oc3cc(O)c(O)c(/C=C/C(=C)C)c3c(=O)c2c1O
IC50 (Alpha-glucosidase [10]): 17.5 µM | Ki (Alpha-glucosidase [11]): 1.4 µM | IC50 (Alpha-glucosidase [12]): 1.5 µM

C=C(C)/C=C/c1c(OC)cc2oc3cc(O)c(OC)c(/C=C/C(=C)C)c3c(=O)c2c1O
IC50 (Alpha-glucosidase [10]): 192 µM | Ki (Alpha-glucosidase [11]): 14.8 µM | IC50 (Alpha-glucosidase [12]): 14.4 µM

COc1cc(OC/C=C(\C)C/C=C(\C)CC=C(C)C)c2c(=O)c3c(O)ccc(OC)c3oc2c1
inhibition (Alpha glucosidase [18]): 66.2%

COc1cc(O)c2c(=O)c3c(O)c(O[C@@H]4OC[C@@H](O)[C@H](O)[C@H]4O[C@@H]4O[C@@H](C)[C@H](O)[C@@H](O)[C@H]4O)ccc3oc2c1
IC50 (Alpha-glucosidase [21]): 765 µM | IC50 (Alpha-glucosidase [22]): 36 µM

CC(C)=CC/C(C)=C/Cc1c(O)cc2oc3c(O)ccc(O)c3c(=O)c2c1O
IC50 (Alpha-glucosidase [10]): 35.3 µM | Ki (Alpha-glucosidase [11]): 2.8 µM | IC50 (Alpha-glucosidase [4]): 394 µM | IC50 (Alpha-glucosidase [12]): 6.9 µM

CC1(C)C=Cc2c(cc3oc4ccc(O)cc4c(=O)c3c2O)O1
IC50 (Alpha-glucosidase [20]): > 100 µM

COc1cc(OC/C=C(\C)CC=C(C)C)c2c(=O)c3c(O)ccc(OC)c3oc2c1
inhibition (Alpha glucosidase [18]): 30.9%

C=C(C)/C=C/c1c(OC)c(O)cc2oc3cc4c(c(O)c3c(=O)c12)CC(O)C(C)(C)O4 (stereo not given)
IC50 (Alpha-glucosidase [10]): 102.5 µM | Ki (Alpha-glucosidase [11]): 23 µM | IC50 (Alpha-glucosidase [12]): 30.5 µM

COc1cc(OCC=C(C)C)c2c(=O)c3c(O)ccc(OC)c3oc2c1
inhibition (Alpha glucosidase [18]): 42.1%

O=c1c2cc(O)c(O)cc2oc2cc(O)c([C@H]3O[C@@H](CO)[C@H](O)[C@@H](O)[C@@H]3O)c(O)c12
IC50 [14]: 52200 µM | inhibition (Rattus norvegicus [7]): 53% | IC50 [23]: 216 µg/mL (≈ 511 µM) | IC50 [15]: 96.1 µg/mL (≈ 228 µM) | inhibition (Rattus norvegicus [24]): 42% | IC50 [25]: 87 µg/mL (≈ 206 µM)

C=CC(C)(C)c1c(O)ccc2c(=O)c3c(O)c(CC=C(C)C)c(OC)c(O)c3oc12
IC50 (Alpha-glucosidase [20]): 8.9 µM

C=C(C)/C=C/c1c(O)c(CC=C(C)C)c2oc3c(O)cccc3c(=O)c2c1O
IC50 (Alpha-glucosidase [10]): 137.2 µM | Ki (Alpha-glucosidase [11]): 12.3 µM | IC50 (Alpha-glucosidase [12]): 21.5 µM

CC(C)=CCc1cc2c(=O)c3c(O)c4c(cc3oc2c(O)c1O)OC(C)(C)C=C4
IC50 (Alpha-glucosidase [20]): 29.36 µM

C=C(C)/C=C/c1c(O)c(CC=C(C)C)c2oc3c(O)ccc(O)c3c(=O)c2c1O
IC50 (Alpha-glucosidase [10]): 37.7 µM | Ki (Alpha-glucosidase [11]): 8.5 µM | IC50 (Alpha-glucosidase [4]): 84 µM | IC50 (Alpha-glucosidase [12]): 10.8 µM

CC(C)=CC/C(C)=C/COc1cc(O)c2c(=O)c3ccccc3oc2c1
inhibition (Alpha glucosidase [18]): 43.1%

C=Cc1cc2oc3cc(O)cc(O)c3c(=O)c2c(OC)c1O
IC50 (Alpha glucosidase [19]): 26.3 µM

O=c1c2c(O)cc(O)cc2oc2ccc(O)c(O)c12
IC50 (Alpha glucosidase [19]): 23.2 µM

COC(=O)c1c(O)ccc2oc3cc(C(=O)O)cc(O)c3c(=O)c12
IC50 (Alpha-glucosidase [1]): 260 µM

O=c1c2ccccc2oc2cc(O)cc(O)c12
IC50 (Alpha glucosidase [19]): 35.2 µM

CC1(C)C=Cc2c(cc3oc4c(O)c5c(cc4c(=O)c3c2O)C=CC(C)(C)O5)O1
IC50 (Alpha-glucosidase [20]): > 100 µM

COc1cc(O)c2c(=O)c3c(OC)c(O)c(O)cc3oc2c1
IC50 (Alpha glucosidase [19]): 44.5 µM

O=c1c2cc(O[C@H]3O[C@@H](O)[C@H](O)[C@@H](O)[C@@H]3O)c(O)cc2oc2cc(O)c([C@H]3O[C@@H](CO)[C@H](O)[C@@H](O)[C@@H]3O)cc12
IC50 [15]: 158 µg/mL (≈ 285 µM)
